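In this assay, cells in 96-well plates receive the compound at five concentrations for 48 hours. Endpoints are linearly interpolated between the surrounding concentrations. GI50: concentration for 50% inhibition of growth.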 The source made the active and inactive calls. Rule as the data show it: active = GI50 up to about 1.1 µM and inactive = higher.
Key:
Test in all cases: NCI tumour cell line growth inhibition, 48 h
RXF 393 = system: RXF 393
NCI/ADR-RES = system: NCI/ADR-RES
UO-31 = system: UO-31
Malme-3M = system: Malme-3M
MCF7 = system: MCF7
MDA-MB-435 = system: MDA-MB-435
SNB-19 = system: SNB-19
HCT-15 = system: HCT-15
BT-549 = system: BT-549
DU-145 = system: DU-145
786-0 = system: 786-0
HOP-62 = system: HOP-62
M14 = system: M14
MDA-N = system: MDA-N
T47D = system: T47D
OVCAR-8 = system: OVCAR-8
SF-539 = system: SF-539
EKVX = system: EKVX
NCI-H226 = system: NCI-H226
SF-268 = system: SF-268

Structure (SMILES)	GI50 (RXF 393)	GI50 (NCI/ADR-RES)	GI50 (UO-31)	GI50 (Malme-3M)	GI50 (MCF7)	GI50 (MDA-MB-435)	GI50 (SNB-19)	GI50 (HCT-15) [µM]	GI50 (BT-549)	GI50 (DU-145)	GI50 (786-0)	GI50 (HOP-62)	GI50 (M14)	GI50 (MDA-N)	GI50 (T47D)	GI50 (OVCAR-8)	GI50 (SF-539)	GI50 (EKVX)	GI50 (NCI-H226)	GI50 (SF-268)
Cl/C(=N\c1cccc2ccccc12)N(c1ccccc1)c1ccccc1	> 100 µM (inactive)	> 100 µM (inactive)	> 100 µM (inactive)	39 µM (inactive)	35.2 µM (inactive)	> 100 µM (inactive)	> 100 µM (inactive)	> 100	> 100 µM (inactive)	> 100 µM (inactive)	> 100 µM (inactive)	> 100 µM (inactive)	43 µM (inactive)	52 µM (inactive)	61.4 µM (inactive)					
Cc1cnc2c(c1C)C(=O)c1ccccc1C2=O	58.1 µM (inactive)	46.3 µM (inactive)	21.2 µM (inactive)		39.1 µM (inactive)	19.3 µM (inactive)	41.9 µM (inactive)	21.6	> 100 µM (inactive)	> 100 µM (inactive)	65.2 µM (inactive)	2.47 µM (inactive)	69 µM (inactive)		70.5 µM (inactive)	43.2 µM (inactive)	29.2 µM (inactive)	37.8 µM (inactive)	36.8 µM (inactive)	20.1 µM (inactive)
CCOC(=O)C1=COC(C)(CCc2ccccc2)CC1=O (stereo not given)	59.4 µM (inactive)	> 100 µM (inactive)	91.2 µM (inactive)		44 µM (inactive)	51.8 µM (inactive)	56.2 µM (inactive)	> 100	71.4 µM (inactive)	> 100 µM (inactive)	> 100 µM (inactive)	> 100 µM (inactive)	> 100 µM (inactive)	87.7 µM (inactive)	47.2 µM (inactive)	52.4 µM (inactive)	66.5 µM (inactive)	> 100 µM (inactive)		> 100 µM (inactive)
Cc1ccc2c(c1)NC(=O)CCSSCCC(=O)N2	> 100 µM (inactive)	> 100 µM (inactive)	> 100 µM (inactive)	> 100 µM (inactive)		> 100 µM (inactive)	> 100 µM (inactive)	> 100	> 100 µM (inactive)	> 100 µM (inactive)	> 100 µM (inactive)	> 100 µM (inactive)	> 100 µM (inactive)	> 100 µM (inactive)	> 100 µM (inactive)	> 100 µM (inactive)	> 100 µM (inactive)	> 100 µM (inactive)	> 100 µM (inactive)	> 100 µM (inactive)
O=C1c2ccc3ccccc3c2CCC1N1CCCCC1 (stereo not given)	20.6 µM (inactive)	20.7 µM (inactive)	15.6 µM (inactive)	17.6 µM (inactive)	33.3 µM (inactive)	18 µM (inactive)	19.7 µM (inactive)	20.2	23.3 µM (inactive)	16.7 µM (inactive)	18 µM (inactive)	18.7 µM (inactive)			21.2 µM (inactive)	20.7 µM (inactive)	14.6 µM (inactive)	22.4 µM (inactive)	15.8 µM (inactive)	19.1 µM (inactive)
O=C(NNC(=O)c1ccncc1)C(=O)Nc1cc(Cl)c(Cl)cc1Cl	> 100 µM (inactive)	> 100 µM (inactive)	> 100 µM (inactive)	> 100 µM (inactive)	> 100 µM (inactive)	> 100 µM (inactive)	> 100 µM (inactive)	> 100	> 100 µM (inactive)		> 100 µM (inactive)	> 100 µM (inactive)	> 100 µM (inactive)	> 100 µM (inactive)	> 100 µM (inactive)	> 100 µM (inactive)	> 100 µM (inactive)	> 100 µM (inactive)	> 100 µM (inactive)	> 100 µM (inactive)
NC(=O)c1nnsc1NN=O	> 100 µM (inactive)	> 100 µM (inactive)	> 100 µM (inactive)	> 100 µM (inactive)	> 100 µM (inactive)	> 100 µM (inactive)	> 100 µM (inactive)	> 100		> 100 µM (inactive)	> 100 µM (inactive)	> 100 µM (inactive)	> 100 µM (inactive)	> 100 µM (inactive)	> 100 µM (inactive)	> 100 µM (inactive)	> 100 µM (inactive)	> 100 µM (inactive)	> 100 µM (inactive)	> 100 µM (inactive)
O=C1CC(c2ccc([N+](=O)[O-])cc2)C2(C(=O)NC(=S)NC2=O)C(c2ccc([N+](=O)[O-])cc2)C1 (stereo not given)		31.6 µM (inactive)	25.4 µM (inactive)	12.2 µM (inactive)	21.4 µM (inactive)	15 µM (inactive)	17.5 µM (inactive)	18.9	17 µM (inactive)	31.8 µM (inactive)	27.7 µM (inactive)	23.8 µM (inactive)	19 µM (inactive)	31.4 µM (inactive)	51.3 µM (inactive)	19.3 µM (inactive)	33.7 µM (inactive)	32.7 µM (inactive)	15.7 µM (inactive)	21.4 µM (inactive)
O=C(Cc1ccccc1)N/N=C/c1ccccc1O		3.98 µM (inactive)	6.52 µM (inactive)	12.6 µM (inactive)	3.94 µM (inactive)	28.6 µM (inactive)	33.1 µM (inactive)	4.25	27.9 µM (inactive)	23.3 µM (inactive)	6.14 µM (inactive)		10.5 µM (inactive)	21.8 µM (inactive)	4.29 µM (inactive)	8.93 µM (inactive)	24.8 µM (inactive)	5.28 µM (inactive)	14.1 µM (inactive)	8.57 µM (inactive)
CC1(C)S[C@@H]2[C@H](NC(=O)/C=C/c3ccccc3)C(=O)N2[C@H]1C(=O)O		> 100 µM (inactive)	> 100 µM (inactive)	> 100 µM (inactive)	> 100 µM (inactive)	> 100 µM (inactive)	> 100 µM (inactive)	> 100	> 100 µM (inactive)	> 100 µM (inactive)	> 100 µM (inactive)	> 100 µM (inactive)	> 100 µM (inactive)	> 100 µM (inactive)	> 100 µM (inactive)	> 100 µM (inactive)	> 100 µM (inactive)		> 100 µM (inactive)	> 100 µM (inactive)
COc1cc2c3c(c4cc(OC)c(OC)cc4c2cc1OC)[C@H](O)[C@@H]1CCCN1C3		< 0.0372 µM (active)	< 0.0337 µM (active)	< 0.0384 µM (active)	< 0.0173 µM (active)	< 0.0265 µM (active)	0.0276 µM (active)	< 0.0239	0.144 µM (active)	< 0.0243 µM (active)	< 0.0321 µM (active)	< 0.0198 µM (active)	< 0.0332 µM (active)	< 0.0363 µM (active)	0.0269 µM (active)	< 0.0308 µM (active)	< 0.0365 µM (active)	< 0.0217 µM (active)	0.0494 µM (active)	< 0.0408 µM (active)

From ChEMBL document CHEMBL1201862, “PubChem BioAssay data set” (2004)
